Columns and labels:
STAT6 [1] = assay: Screening compounds inhibiting promotion of STAT6 activity (STAT6 reporter activity); assay type: cell-based; conditions: 20 μM, mouse IL-4 1 ng/ml, 6 h; for inhibition of expression of the STAT6 reporter gene, control plasmid well: NIH3T3 cells with control plasmid pcDNA3.1 (+); for inhibition of expression of the STAT6 reporter gene (relative luciferase activity): NIH3T3 cells with plasmid for STAT6 activation-promoting protein of SEQ ID NO: 3, 17, 19, 218, 432 or 472, or nucleotide of SEQ ID NO: 64, FIGS. 1 to 7
Method: NIH3T3 cells were seeded on 10% FBS containing IMDM medium in a 96-well cell culture plate to a final cell density of 1×10^4 cells/100 μl/well, and cultured for 24 hours at 37° C. in the presence of 5% CO2. Then, 30 ng of the plasmid containing the nucleotide encoding the STAT6 activation-promoting protein of SEQ ID NO: 3, 17, 19, 218, 432 or 472, or the nucleotide of SEQ ID NO: 64, and 100 ng of the luciferase reporter plasmid having the STAT6 response sequence were cotransfected into the cells in a well using FuGENE 6. […] After 30 min of culture at 37° C., followed by 6 hours of culture with addition of mouse IL-4 to a final concentration of 1 ng/ml, the reporter activity was measured using PIKKA GENE LT2.0.

STAT6 [2] = assay: Screening of full-length cDNA clones for promotion of STAT6 activation (luciferase reporter N4×8-luc); assay type: cell-based; conditions: NIH3T3 cells cotransfected with N4×8-luc reporter and cDNA plasmid; 48 h culture, then mouse IL-4 0.5 ng/ml for 6 h
In short: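 Promotion of STAT6 activation scored as increase in luciferase signal over null-vector control cells. NIH3T3 cells carried N4×8-luc (100 ng) plus cDNA clone; after 48 h culture, 6 h stimulation with 0.5 ng/ml (final) mouse IL-4 preceded reading.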

Molecule	inhibition of expression of the STAT6 reporter gene, control plasmid well (STAT6 [1])	inhibition of expression of the STAT6 reporter gene (relative luciferase activity) (STAT6 [1])	Activity = (luciferase activity of the gene of each SEQ ID NO:)/(luciferase activity of pME18S-FL3) (STAT6 [2])
N#CC(C#N)=Cc1ccc(O)c(O)c1 [AG18]	no expression was inhibited at all	inhibited	–
N#C/C(=C/c1ccc(O)c(O)c1)C(=O)NCc1ccccc1 [AG490]	no expression was inhibited at all	inhibited	–
481 (nucleic acid, listed as Homo sapiens, CDS (112)..(1224)) GAAAGAGCCGAGTGGGCTCGAGGCCGACGCGACCATCGTTTGTCGACGCCGCTGCCACCGCCTGCCTGAGAGAAGTCGTCGCGGCCGACCCCGTCGCCTCCGCCGGCTACCATGTCCGCCCAGGCGCAGATGCGGGCCCTGCTGGACCAGCTCATGGGCACGGCTCGGGACGGAGACGAAACCAGACAGAGGGTCAAGTTTACAGATGACCGTGTCTGCAAGAGTCACCTTCTGGACTGCTGCCCCCATGACATCCTGGCTGGGACGCGCATGGATTTAGGAGAATGTACCAAAATCCACGACTTGGCCCTCCGAGCAGATTATGAGATTGCAAGTAAAGAAAGAGACCTGTTTTTTGAATTAGATGCAATGGATCACTTGGAGTCCTTTATTGCTGAATGTGATCGGAGAACTGAGCTCGCCAAGAAGCGGCTGGCAGAAACACAGGAGGAAATCAGTGCGGAAGTTTCTGCAAAGGCAGAAAAAGTACATGAGTTAAATGAAGAAATAGGAAAACTCCTTGCTAAAGCCGAACAGCTAGGGGCTGAAGGTAATGTGGATGAATCCCAGAAGATTCTTATGGAAGTGGAAAAAGTTCGTGCGAAGAAAAAAGAAGCTGAGGAAGAATACAGAAATTCCATGCCTGCATCCAGTTTTCAGCAGCAAAAGCTGCGTGTCTGCGAGGTCTGTTCAGCCTACCTTGGTCTCCATGACAATGACCGTCGCCTGGCAGACCACTTCGGTGGCAAGTTACACTTGGGGTTCATTCAGATCCGAGAGAAGCTTGATCAGTTGAGGAAAACTGTCGCTGAAAAGCAGGAGAAGAGAAATCAGGATCGCTTGAGGAGGAGAGAGGAGAGGGAACGGGAGGAGCGTCTGAGCAGGAGGTCGGGATCAAGAACCAGAGATCGCAGGAGGTCACGCTCCCGGGATCGGCGTCGGAGGCGGTCAAGATCTACCTCCCGAGAGCGACGGAAATTGTCCCGGTCCCGGTCCCGAGATAGACATCGGCGCCACCGCAGCCGTTCCCGGAGCCACAGCCGGGGACATCGTCGGGCTTCCCGGGACCGAAGTGCGAAATACAAGTTCTCCAGAGAGCGGGCATCCAGAGAGGAGTCCTGGGAGAGCGGGCGGAGCGAGCGAGGGCCCCCGGACTGGAGGCTTGAGAGCTCCAACGGGAAGATGGCTTCACGGAGGTCAGAAGAGAAGGAGGCCGGCGAGATCTGAACCCGTCTCCCGGGTGCTGTAAATAGTCTGATAAACGTTCACACAGTCTAAAATTACCCTTTATATTTGCTGAATACAACTCATCTTTTGTAGTTTAAAATTTCTATTGTTTTGGAGCTAGCTGTGAGTTTCTAGAAGTGTACAGAGTTGCTCCTGTGTTCCCGGGTCATGTTGAGTAGGAATAAATAAATCTGATGCTGCCTCCTGAGGCTGCGGGGGGTTT	–	–	6.4

— US20030092616A1, “STAT6 activation gene” (priority 2001, published 2003)
